Consider 29 molecules from PubChem BioAssay AID179 (DTP/NCI, 2004).

Values joined by “and” are separate entries in the source; they are usually repeats but may differ in a detail not shown here. Identical values can stand only once. Active and inactive are the calls of the source.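 Rule for the calls: active = compounds giving half or more protection of infected cells from virus-caused growth loss, again on retest; inactive = the rest.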

The assay deals with CEM cells HIV-1 protection, formazan growth assay. Put plainly: NCI AIDS Antiviral Assay. The note with it: for IC50: measured here: growth of uninfected CEM cells. The method in brief:
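Category rules: moderately active means at least 50% protection on retest, and confirmed active means 100% protection reproducibly. The underlying data came from a formazan growth assay in HIV-1-infected CEM cells.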

What is called EC50 is the midpoint of the concentration-response curve. What is called IC50 is the point on the concentration scale where inhibition reaches its midpoint. A lower IC50 goes with greater potency in that assay. With `CC1(CO)CC(O)C(n2cnc3c(N)ncnc32)O1` (stereo not given), the EC50 was more than 5.13 µM and the IC50 is more than 5.13 µM.

Take `CC1(C)C2CCC13CS(=O)(=O)N=C3C2` (stereo not given): the result was inactive.

As for `CCCCCCCCCCCCCCCCOC(=O)c1cc(OCCOP(=O)(O)O)cc(C(=O)OCCCCCCCCCCCCCCCC)c1`, the outcome was inactive.

With `CC(C)(C)c1cc(CCC(=O)Nc2ccc(Cl)cc2Cl)nc(N)n1`, the EC50 is more than 135 µM and the half-inhibitory concentration (IC50) was more than 135 µM.

Take `CCP(=O)(CC)C(Cl)Cl`: the EC50 was more than 200 µM and the concentration for half-maximal inhibition (IC50) is more than 200 µM.

Consider `Cn1ccoc1=Nc1ccc(Cl)c(Cl)c1`, for which the EC50 is more than 200 µM and the half-maximal inhibitory concentration (IC50) was more than 200 µM.

Take `N#C/C(=C\c1ccc2c(c1)OCO2)c1ccccc1`: the EC50 is more than 200 µM; the IC50 is 41.7 µM and > 28.8 µM.

Turning to `COc1cnnc2c(C)c(-c3ccccc3)nn12`, the EC50 was more than 200 µM and the IC50 was determined as 46.8 µM.

Turning to `CC(C)CCC1(O)O[C@H]2C[C@H]3[C@@H]4CCC5CC(=O)C=C[C@]5(C)[C@H]4CC[C@]3(C)[C@H]2[C@@H]1C` (stereo not given in full), the EC50 was more than 151 µM and the IC50 worked out at 21.4 µM.

With `COc1cc(OC)c(C(=O)c2cccs2)cc1N`, the result was inactive.

For the molecule `Nc1nc(Cl)c(N)c(NCC2(CO)CC(OCc3ccccc3)C2)n1` (stereo not given), the EC50 was more than 20 µM and the IC50 worked out at 2.14 µM.

For `C[N+](C)(C)CC(=O)NC(=O)N/N=C\C(CC#N)CN(Cc1ccccc1)Cc1ccccc1` (stereo not given), the EC50 was more than 74.1 µM and the half-maximal inhibitory concentration (IC50) was more than 74.1 µM.

For `O=c1c2c([nH]c3c1ccc1[nH]c4c(c(=O)c13)CCCC4)CCCC2`, the EC50 was more than 42.7 µM and the IC50 is more than 42.7 µM.

In the case of `COc1ccc2nccc3c2c1NC(Cl)=C3`, the EC50 was more than 200 µM and the IC50 is 1.58 µM.

For `COc1ccc(Nc2ccc([N+](=O)[O-])c3nonc23)cc1`, the EC50 was more than 77.6 µM and the IC50 is more than 77.6 µM.

For `Nc1nc(Cl)nc2c1ncn2C1CC(O)C(CO)O1` (stereo not given), the EC50 was more than 631 µM and the IC50 worked out at 3.09 µM.

With `O=C1CCCc2cc3c(cc21)CC1(C3)Cc2cc3c(cc2C1)C(=O)CCC3`, the EC50 is more than 200 µM and the IC50 came out at 0.977 µM.

Consider `N#CC(C#N)=Cn1c(=S)[nH]c2ccccc21`, for which the EC50 was more than 200 µM and the 50% inhibitory concentration (IC50) is more than 200 µM.

`COc1ccc(-c2nc3c(nc2-c2ccc(OC)cc2)C(N)=NS(=O)(=O)N3)cc1`: the EC50 was more than 166 µM and the IC50 was more than 166 µM.

For `COC(=O)C(=O)C(CC(=O)Nc1ccc(C)cc1)C(=O)OC` (stereo not given), the EC50 was more than 309 µM and the IC50 is more than 309 µM.

Take `CN1CCN=C1c1nnn(-c2ccc([N+](=O)[O-])cc2)c1-c1ccccc1`: the EC50 was 57.5 µM and the IC50 came to 145 µM.

On to `CN(C)C(=O)NCCN1CCCCCc2ccccc21`, for which the EC50 was more than 200 µM and the IC50 turned out to be 49 µM.

Turning to `O=S(=O)(O)c1ccc2cc(N=Nc3cc(S(=O)(=O)O)c4cccnc4c3O)ccc2c1`, the EC50 is 24 µM and the half-maximal inhibitory concentration (IC50) was more than 100 µM.

Turning to `COC(=O)[C@H](Cc1c[nH]c2ccccc12)NP(=O)(OCCC#N)OCC1OC(n2cc(C)c(=O)[nH]c2=O)CC1N=[N+]=[N-]` (stereo not given in full), the EC50 was 55 µM and the IC50 came to 186 µM.

For the molecule `CCOC(=O)CCC(NC(=O)c1ccc(NC(OC)c2nc3cc(C(F)(F)F)ccc3nc2-c2ccccc2)cc1)C(=O)OCC` (stereo not given), the EC50 is more than 8.13 µM and the IC50 was more than 8.13 µM.

For the molecule `CC1=Nc2nnnn2N=C(C)C1`, the EC50 was more than 234 µM and the 50% inhibitory concentration (IC50) was more than 234 µM.

Take `Oc1ccc(/C=C\c2cnccn2)cc1`: the EC50 is more than 251 µM and the IC50 is 33.9 µM.

Consider `O=C(Nc1ccc2c(O)c(N=Nc3ccc(S(=O)(=O)O)cc3)c(S(=O)(=O)O)cc2c1)Nc1ccc2c(O)c(N=Nc3ccc(S(=O)(=O)O)cc3)c(S(=O)(=O)O)cc2c1`, for which the EC50 was 8.91 µM and the IC50 was found to be 110 µM.

With `Cc1c(Cc2ccccc2)n(C(C)OCCN2C(=O)C=CC2=O)c(=O)[nH]c1=O` (stereo not given), the EC50 was more than 200 µM and the IC50 came to 9.77 µM.
